From US20240327353A1
Where two headings read alike, the source gives them in different places.

How the values were obtained:
[1] = biological target: T1, 5-HT2AR (Homo sapiens, UniProt P28223); experiment: Radioligand binding (competitive displacement and saturation), cell membranes; details: for Ki: pKi 5-HT2AR
T1 construct: host or cells: HEK293, transient
Protocol: (§1) Transfections were performed for 48 hours.

[2] = biological target: T2, 5-HT2CR (Homo sapiens, UniProt P28335); experiment: biochemical
T2 sequence (P28335 33-458): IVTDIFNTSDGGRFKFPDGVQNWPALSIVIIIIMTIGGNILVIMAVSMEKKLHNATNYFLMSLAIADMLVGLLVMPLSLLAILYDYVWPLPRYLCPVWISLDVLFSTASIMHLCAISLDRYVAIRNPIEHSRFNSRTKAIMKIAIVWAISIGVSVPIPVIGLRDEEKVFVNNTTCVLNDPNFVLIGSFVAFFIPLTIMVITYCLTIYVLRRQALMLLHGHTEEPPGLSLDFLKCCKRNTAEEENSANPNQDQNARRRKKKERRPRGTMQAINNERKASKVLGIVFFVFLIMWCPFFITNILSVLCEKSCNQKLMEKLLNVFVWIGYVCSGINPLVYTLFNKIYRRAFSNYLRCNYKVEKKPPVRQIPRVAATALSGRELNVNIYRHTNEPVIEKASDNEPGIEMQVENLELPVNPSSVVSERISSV
Protocol: (§2) All cells were grown adherently in 10 cm plates in a humidified incubator kept at 37° C. and 5% carbon dioxide. […] Transient transfections were used to express 5-HT2A, 5-HT2C, α1A- or α1B-adrenergic receptors, whereas 5-HT7(a)Rs were stably expressed in HEK293 cells. H1Rs were transiently expressed, and D2Rs were stably expressed in CHO cells.
(§3) Transient transfections were performed on cells in the log growth phase (70-90% confluence). […] Each solution was mixed by inversion before combining, mixed by inversion again, and incubated at 37° C. for 30 minutes. Cells were then washed with 1 mL 1×PBS, followed by the gentle addition of 5 mL of transfection cocktail and 5 mL of cell culture medium with 5% (final) dialyzed FBS. Transfections were performed for 48 hours.
(§4) The affinity of ligands was determined via radioligand binding techniques using human recombinant receptors expressed in mammalian clonal cells.
(§5) Saturation binding experiments were performed on membranes expressing 5-HT2A, 5-HT2B, 5-HT2C, or H1Rs in triplicate across 8 concentrations. Competition binding assays were performed in at least triplicate with approximate Kd concentrations of radioligand. Total and nonspecific binding were determined in octet. […] Serial dilutions of unlabeled compound were made in assay buffer at 2.5× the final concentration using 10 mM DMSO stocks (final [DMSO]≤1%). Assays were terminated using rapid filtration via Whatman GF/B Fired Filters (Brandel Inc., Gaithersburg, MD) soaked in 0.3% (w/v) PEI, using an automated Tomtec Harvester 96 (Hamden, CT).
(§6) Filters were washed with 50 mM Tri-HCl (pH=7.4, 4° C.) before being oven dried and placed into scintillation vials containing 1 mL SX18-4 ScintiVerse^TM BD Cocktail (Fisher Chemical, Fair Lawn, NJ).
(§7) GraphPad Prism (La Jolla, CA) version 9.1.1 was used to analyze all experimental data in this work. To analyze data from saturation binding studies, the radioligand counts per minute (cpm) were normalized to fmol/mg protein bound and then fit the data to a ‘specific binding with hill slope’ model. For competitive radioligand displacement studies, a baseline correction was performed by subtracting the mean nonspecific binding value from the radioligand binding values with and without competitor to obtain specific binding values. Specific binding values were then normalized such that total binding in the absence of competitor represented 100% radioligand binding, and the radioactivity associated with each concentration of competitor was a percentage of total binding. The normalized data was then fit to the ‘one-site Fit Ki’ nonlinear regression model.

[3] = biological target: T3, 5-HT2BR (Homo sapiens, UniProt P41595); experiment: biochemical
Protocol: as §2, §3, §4, §5, §6, §7

[4] = biological target: T4, H1R (Homo sapiens, UniProt P35367); experiment: Radioligand binding (competitive displacement and saturation), cell membranes
T4 construct: host or cells: CHO, transient
Protocol: as §1

[5] = biological target: T3, 5-HT2BR; experiment: as above
Protocol: as §2, §3, §4, §5, §6, §7

[6] = displacement of [^3H]ketanserin, mean of n independent experiments, ± SD where n ≥ 5
[7] = pKi H1R, displacement of [^3H]mepyramine, mean of n independent experiments, ± SD where n ≥ 5

T4 sequence (P35367 whole entry): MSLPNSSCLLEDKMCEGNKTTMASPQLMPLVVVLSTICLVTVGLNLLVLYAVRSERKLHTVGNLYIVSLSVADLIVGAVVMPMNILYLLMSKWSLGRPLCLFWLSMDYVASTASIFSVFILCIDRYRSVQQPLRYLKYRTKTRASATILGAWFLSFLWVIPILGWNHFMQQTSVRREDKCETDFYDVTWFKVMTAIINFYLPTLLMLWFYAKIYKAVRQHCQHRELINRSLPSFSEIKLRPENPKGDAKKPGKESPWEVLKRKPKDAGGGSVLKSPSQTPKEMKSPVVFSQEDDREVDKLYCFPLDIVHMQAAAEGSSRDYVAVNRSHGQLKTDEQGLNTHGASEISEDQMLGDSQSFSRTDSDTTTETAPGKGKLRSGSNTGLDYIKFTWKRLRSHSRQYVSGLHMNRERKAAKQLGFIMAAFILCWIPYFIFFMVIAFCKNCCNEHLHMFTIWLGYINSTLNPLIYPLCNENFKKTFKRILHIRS
T3 sequence (P41595 whole entry): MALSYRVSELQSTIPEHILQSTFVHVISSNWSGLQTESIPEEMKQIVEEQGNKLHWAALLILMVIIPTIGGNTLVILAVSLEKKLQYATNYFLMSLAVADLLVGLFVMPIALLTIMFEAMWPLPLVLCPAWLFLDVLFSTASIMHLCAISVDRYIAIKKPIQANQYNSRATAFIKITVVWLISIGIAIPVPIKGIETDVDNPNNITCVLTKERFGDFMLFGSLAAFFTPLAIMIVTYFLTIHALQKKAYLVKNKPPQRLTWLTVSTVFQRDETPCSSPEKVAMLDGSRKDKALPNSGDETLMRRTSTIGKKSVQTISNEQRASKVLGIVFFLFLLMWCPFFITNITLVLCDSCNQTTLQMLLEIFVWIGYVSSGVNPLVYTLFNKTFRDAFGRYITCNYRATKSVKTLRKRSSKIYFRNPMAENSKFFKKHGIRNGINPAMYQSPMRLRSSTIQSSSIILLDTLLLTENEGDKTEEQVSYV
T1 sequence (P28223 whole entry): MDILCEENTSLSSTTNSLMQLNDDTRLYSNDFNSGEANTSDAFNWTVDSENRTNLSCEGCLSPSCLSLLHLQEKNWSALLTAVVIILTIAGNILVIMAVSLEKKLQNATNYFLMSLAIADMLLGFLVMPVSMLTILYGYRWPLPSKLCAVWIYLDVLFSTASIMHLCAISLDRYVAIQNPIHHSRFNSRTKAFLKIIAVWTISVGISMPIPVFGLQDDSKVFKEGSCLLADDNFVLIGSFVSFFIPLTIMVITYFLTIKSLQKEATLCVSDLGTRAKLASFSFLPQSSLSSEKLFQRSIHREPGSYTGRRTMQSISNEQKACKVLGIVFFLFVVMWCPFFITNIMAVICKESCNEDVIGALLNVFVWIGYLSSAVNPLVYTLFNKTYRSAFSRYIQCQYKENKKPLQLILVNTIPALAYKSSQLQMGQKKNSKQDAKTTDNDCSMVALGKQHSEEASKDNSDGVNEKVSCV

Row | SMILES | Ki [1, 6] | Ki [2] | Ki [3] | further results
1 | CN(C)[C@@H]1Cc2ccccc2[C@H](c2cccc(Br)c2)C1 (single isomer, unassigned) [(2R,4R)-3a, Cis-4-(3-bromophenyl)-N, N-dimethyl-1,2,3,4-tetrahydronaphthalen-2-amine] | 31.6 nM | 57.5 nM | 85.1 nM | –
2 | CN(C)[C@@H]1Cc2ccccc2[C@H](c2cccc(Cl)c2)C1 (single isomer, unassigned) [(2R,4R)-3b, Cis-4-(3-chlorophenyl)-N, N-dimethyl-1,2,3,4-tetrahydronaphthalen-2-amine] | – | – | 115 nM | –
3 | CN(C)[C@@H]1Cc2ccccc2[C@H](c2cccc(F)c2)C1 (single isomer, unassigned) [(2R,4R)-3b′, Cis-4-(3-fluorophenyl)-N, N-dimethyl-1,2,3,4-tetrahydronaphthalen-2-amine] | – | 251 nM | 447 nM | –
4 | CN(C)[C@@H]1Cc2ccccc2[C@H](c2cccc(-c3cccs3)c2)C1 (single isomer, unassigned) [(2R,4R)-3c, Cis-4-(3-(thiophen-2-yl)phenyl)-N,N-dimethyl-1,2,3,4-tetrahydronaphthalen-2-amine] | – | 24 nM | 105 nM | selectivity for 5-HT2ARs over 5-HT2B and H1Rs ([1]; one figure for both off-targets): 30-60 fold; Ki [1]: 3.55 nM; Ki ([4]; read-out: pKi H1R (converted)): 234 nM
5 | CN(C)[C@@H]1Cc2ccccc2[C@H](c2cccc(-c3ccco3)c2)C1 (single isomer, unassigned) [(2R,4R)-3d, Cis-4-(3-(furan-2-yl)phenyl)-N,N-dimethyl-1,2,3,4-tetrahydronaphthalen-2-amine] | – | – | – | Ki [4, 7]: 50.1 nM
6 | CN(C)[C@@H]1Cc2ccccc2[C@H](c2cccc(-c3ccccc3)c2)C1 (single isomer, unassigned) [(2R,4R)-3f, Cis-4-([1,1′-biphenyl]-3-yl)-N,N-dimethyl-1,2,3,4-tetrahydronaphthalen-2-amine] | – | 26.9 nM | 117 nM | –
7 | CN(C)[C@@H]1Cc2ccccc2[C@H](c2cccc(-c3ccc(Cl)cc3)c2)C1 (single isomer, unassigned) [(2R,4R)-3j, Cis-4-(4′-chloro-[1,1′-biphenyl]-3-yl)-N,N-dimethyl-1,2,3,4-tetrahydronaphthalen-2-amine] | 1.7 nM | 9.33 nM | – | pKi H1R [4]: 7.84^(2) 7.89-7.78 8.84^(3) 8.86-8.82 ND 6.40^(3) 6.41-6.40
8 | CN(C)c1ccc(-c2cccc([C@@H]3C[C@H](N(C)C)Cc4ccccc43)c2)cc1 (single isomer, unassigned) [(2R,4R)-3k, Cis-4-(4′-(dimethylamino)-[1,1′-biphenyl]-3-yl)-N,N-dimethyl-1,2,3,4-tetrahydro-naphthalen-2-amine] | – | – | – | pKi 5-HT2BR [5]: 5.52^(2) 5.68-5.37 7.10 ± 0.21^(5) 7.40-6.82 5.97^(2) 6.08-5.87 5.97^(2) 6.09-5.86
9 | CN(C)[C@@H]1Cc2ccccc2[C@@H](c2cccc(-c3ccccc3)c2)C1 (single isomer, unassigned) [(2R,4S)-2f, Trans-4-([1,1′-biphenyl]-3-yl)-N,N-dimethyl-1,2,3,4-tetrahydronaphthalen-2-amine] | – | 69.2 nM | 112 nM | –
10 | CN(C)C1Cc2ccccc2C(c2cccc(-c3ccccc3F)c2)C1 (single isomer, unassigned) [(2R,4S)-2g, Trans-4-(2′-fluoro-[1,1′-biphenyl]-3-yl)-N, N-dimethyl-1,2,3,4-tetrahydronaphtha-len-2-amine] | 30.9 nM | – | 43.7 nM | pKi H1R [4]: 6.93^(2) 7.02-6.84 8.75^(4) 9.1-8.62 ND 6.54^(2) 6.67-6.40
11 | CN(C)[C@@H]1Cc2ccccc2[C@@H](c2cccc(-c3ccco3)c2)C1 (single isomer, unassigned) [(2S,4R)-2d, Trans-4-(3-(furan-2-yl)phenyl)-N,N-dimethyl-1,2,3,4-tetrahydronaphthalen-2-amine] | – | – | – | Ki [4, 7]: 3.39 nM
12 | CN(C)[C@@H]1Cc2ccccc2[C@@H](c2cccc(-c3ccncc3)c2)C1 (single isomer, unassigned) [(2S,4R)-2e, Trans-4-(3-(pyridin-4-yl)phenyl)-N,N-dimethyl-1,2,3,4-tetrahydronaphthalen-2-amine] | 7.41 nM | 42.7 nM | – | Ki [4, 7]: 1.38 nM
13 | CN(C)[C@@H]1Cc2ccccc2[C@@H](c2cccc(-c3ccccc3)c2)C1 (single isomer, unassigned) [(2S,4R)-2f, Trans-4-([1,1′-biphenyl]-3-yl)-N,N-dimethyl-1,2,3,4-tetrahydronaphthalen-2-amine] | – | 3.31 nM | 52.5 nM | –
14 | CN(C)C1Cc2ccccc2C(c2cccc(-c3ccccc3F)c2)C1 (single isomer, unassigned) [(2S,4R)-2g, Trans-4-(2′-fluoro-[1,1′-biphenyl]-3-yl)-N, N-dimethyl-1,2,3,4-tetrahydronaphtha-len-2-amine] | 0.813 nM | – | 81.3 nM | Ki [4, 7]: 1.78 nM
15 | CN(C)[C@@H]1Cc2ccccc2[C@H](c2cccc(Cl)c2)C1 (single isomer, unassigned) [(2S,4S)-3b, Cis-4-(3-chlorophenyl)-N, N-dimethyl-1,2,3,4-tetrahydronaphthalen-2-amine] | – | – | 389 nM | –
16 | CN(C)[C@@H]1Cc2ccccc2[C@H](c2cccc(F)c2)C1 (single isomer, unassigned) [(2S,4S)-3b′, Cis-4-(3-fluorophenyl)-N, N-dimethyl-1,2,3,4-tetrahydronaphthalen-2-amine] | – | 437 nM | 912 nM | –
17 | CN(C)[C@@H]1Cc2ccccc2[C@H](c2cccc(-c3cccs3)c2)C1 (single isomer, unassigned) [(2S,4S)-3c, Cis-4-(3-(thiophen-2-yl)phenyl)-N,N-dimethyl-1,2,3,4-tetrahydronaphthalen-2-amine] | – | 224 nM | 89.1 nM | Ki [1]: 151 nM; Ki ([4]; read-out: pKi H1R (converted)): 437 nM
18 | CN(C)[C@@H]1Cc2ccccc2[C@H](c2cccc(-c3ccccc3F)c2)C1 (single isomer, unassigned) [(2S,4S)-3g, Cis-4-(2′-fluoro-[1,1′-biphenyl]-3-yl)-N,N-dimethyl-1,2,3,4-tetrahydronaphthalen-2-amine] | 40.7 nM | – | – | pKi 5-HT2BR [5]: 7.36^(2) 7.36-7.35 7.09^(3) 7.23-6.90 6.53^(3) 6.71-6.30 6.33^(2) 6.49-6.17
19 | CN(C)[C@@H]1Cc2ccccc2[C@H](c2cccc(-c3cccc(F)c3)c2)C1 (single isomer, unassigned) [(2S,4S)-3h, Cis-4-(3′-fluoro-[1,1′-biphenyl]-3-yl)-N,N-dimethyl-1,2,3,4-tetrahydronaphthalen-2-amine] | – | – | – | pKi 5-HT2AR [1, 6]: 7.69; pKi H1R [4]: 7.31 ^(2) 7.39-7.23 8.96^(3) 9.11-8.88 6.20^(2) 6.23-6.18 6.30 ± 0.10^(5) 6.42-6.14
20 | CN(C)[C@@H]1Cc2ccccc2[C@H](c2cccc(-c3ccc(Cl)cc3)c2)C1 (single isomer, unassigned) [(2S,4S)-3j, Cis-4-(4′-chloro-[1,1′-biphenyl]-3-yl)-N,N-dimethyl-1,2,3,4-tetrahydronaphthalen-2-amine] | 63.1 nM | 97.7 nM | – | –
21 | CN(C)c1ccc(-c2cccc([C@@H]3C[C@H](N(C)C)Cc4ccccc43)c2)cc1 (single isomer, unassigned) [(2S,4S)-3k, Cis-4-(4′-(dimethylamino)-[1,1′-biphenyl]-3-yl)-N,N-dimethyl-1,2,3,4-tetrahydro-naphthalen-2-amine] | – | – | – | pKi 5-HT2BR [5]: 5.52^(2) 5.68-5.37 7.10 ± 0.21^(5) 7.40-6.82 5.97^(2) 6.08-5.87 5.97^(2) 6.09-5.86
22 | CN(C)C1Cc2ccccc2C(c2cccc(-c3cccc(F)c3)c2)C1 [(2R,4S)-2h, Trans-4-(3′-fluoro-[1,1′-biphenyl]-3-yl)-N,N-dimethyl-1,2,3,4-tetrahydronaphtha-len-2-amine] | – | – | – | pKi 5-HT2AR [1, 6]: 8.03; Ki [4, 7]: 49 nM
23 | CN(C)C1Cc2ccccc2C(c2cccc(-c3ccc(Cl)cc3)c2)C1 [(2R,4S)-2j, Trans-4-(4′-chloro-[1,1′-biphenyl]-3-yl)-N,N-dimethyl-1,2,3,4-tetrahydronaphtha-len-2-amine] | 5.37 nM | 7.08 nM | – | Ki [4, 7]: 14.5 nM
24 | CN(C)c1ccc(-c2cccc(C3CC(N(C)C)Cc4ccccc43)c2)cc1 [(2R,4S)-2k, Trans-4-(4′-(dimethylamino)-[1,1′-biphenyl]-3-yl)-N,N-dimethyl-1,2,3,4-tetra-hydronaph-thalen-2-amine] | – | – | – | pKi 5-HT2BR [5]: 5.52^(2) 5.68-5.37 7.10 ± 0.21^(5) 7.40-6.82 5.97^(2) 6.08-5.87 5.97^(2) 6.09-5.86
25 | CN(C)[C@@H]1Cc2ccccc2[C@@H](c2cccc(-c3cccc(F)c3)c2)C1 [(2S,4R)-2h, Trans-4-(3′-fluoro-[1,1′-biphenyl]-3-yl)-N,N-dimethyl-1,2,3,4-tetrahydronaphtha-len-2-amine] | – | – | – | pKi 5-HT2AR [1, 6]: 9.22; pKi H1R ([4]; displacement of [^3H]mepyramine, mean of n independent experiments, ± SD where n ≥ 5): 8.96
26 | CN(C)[C@@H]1Cc2ccccc2[C@@H](c2cccc(-c3ccc(Cl)cc3)c2)C1 [(2S,4R)-2j, Trans-4-(4′-chloro-[1,1′-biphenyl]-3-yl)-N,N-dimethyl-1,2,3,4-tetrahydronaphtha-len-2-amine] | 0.288 nM | 4.9 nM | – | Ki [4, 7]: 1.45 nM
